Data as given in patent US7820623B2 (priority 2006, dated 2010).
Where two headings read alike, the source gives them in different places. Bridge positions count the residues as written; N and C are the ends. Square brackets hold non-standard residues; d marks the D form. Peptide text beside a SMILES is read from it. 1Nal = N[C@@H](Cc1cccc2ccccc12)C(=O)O

Legend:
[1] = tested on: thapsigargin-induced IFN-g production in human whole blood; format: cell-based
[2] = tested on: thapsigargin-induced IL-2 production in human whole blood
[3] = read-out: Analogue Activity (IC50) WB/IFNg
[4] = read-out: Analogue Activity (IC50) WB/IL-2

| Molecule | IC50 [1, 3] | IC50 [2, 4] | IC50 ([1]; read-out: Average IC50 IFNg) | IC50 ([2]; read-out: Average IC50 IL-2) | other results |
| --- | --- | --- | --- | --- | --- |
| CC[C@H](C)[C@@H]1NC(=O)[C@H](CCCCN)NC(=O)[C@@H](NC(=O)[C@H](CCCCN)NC(=O)[C@@H](NC(=O)[C@H](CC(N)=O)NC(=O)[C@@H](NC(=O)[C@@H](NC(=O)[C@@H](NC(=O)CN)C(C)C)[C@@H](C)CC)[C@@H](C)CC)C(C)C)CSSC[C@@H]2NC(=O)[C@H](CCCCN)NC(=O)CNC(=O)[C@H](Cc3ccccc3)NC(=O)[C@H](CCCNC(=N)N)NC(=O)[C@H](CCSC)NC(=O)CNC(=O)[C@H](C)NC(=O)[C@H](CCCCN)NC(=O)[C@H](CCCCN)NC(=O)[C@@H]3CSSC[C@@H](C(=O)N[C@@H](CCCNC(=N)N)C(=O)N4CCC[C@H]4C(=O)N[C@@H](CCCCN)C(=O)O)NC(=O)[C@H](Cc4c[nH]cn4)NC(=O)[C@H](CSSC[C@H](NC(=O)[C@H](CCC(N)=O)NC(=O)[C@H](CCCNC(=N)N)NC(=O)[C@H](CO)NC1=O)C(=O)N[C@@H](CC(C)C)C(=O)N[C@@H](CCC(=O)O)C(=O)N1CCC[C@H]1C(=O)N3)NC(=O)[C@H](CCCCN)NC(=O)CNC(=O)[C@H](CC(N)=O)NC(=O)[C@H](CCSC)NC2=O [T36R] (H-GVIINVKCKISRQCLEPCKKAGMRFGKCMNGKCHCRPK-OH; disulfide 8-28, 14-33, 18-35) | 10.1 nM | 9.7 nM |  |  |  |
| GVIINVKCKISAQCLEPCKKAGMRFGKCMNGKCHCTPK [Ala-12 (SEQ ID No: 1410)] |  |  | 0.155 nM | 0.123 nM |  |
| CC[C@H](C)[C@@H]1NC(=O)[C@H](CCCCN)NC(=O)[C@@H](NC(=O)[C@H](Cc2cccc3ccccc23)NC(=O)[C@@H](NC(=O)[C@H](CC(N)=O)NC(=O)[C@@H](NC(=O)[C@@H](NC(=O)[C@@H](NC(=O)CN)C(C)C)[C@@H](C)CC)[C@@H](C)CC)C(C)C)CSSC[C@@H]2NC(=O)[C@H](CCCCN)NC(=O)CNC(=O)[C@H](Cc3ccccc3)NC(=O)[C@H](CCCNC(=N)N)NC(=O)[C@H](CCSC)NC(=O)CNC(=O)[C@H](C)NC(=O)[C@H](CCCCN)NC(=O)[C@H](CCCCN)NC(=O)[C@@H]3CSSC[C@@H](C(=O)N[C@H](C(=O)N4CCC[C@H]4C(=O)N[C@@H](CCCCN)C(=O)O)[C@@H](C)O)NC(=O)[C@H](Cc4c[nH]cn4)NC(=O)[C@H](CSSC[C@H](NC(=O)[C@H](CCC(N)=O)NC(=O)[C@H](CCCNC(=N)N)NC(=O)[C@H](CO)NC1=O)C(=O)N[C@@H](CC(C)C)C(=O)N[C@@H](CCC(=O)O)C(=O)N1CCC[C@H]1C(=O)N3)NC(=O)[C@H](CCCCN)NC(=O)CNC(=O)[C@H](CC(N)=O)NC(=O)[C@H](CCSC)NC2=O [K7Nal] (H-GVIINV[1Nal]CKISRQCLEPCKKAGMRFGKCMNGKCHCTPK-OH; disulfide 8-28, 14-33, 18-35) | 0.246 nM | 0.222 nM |  |  |  |
| CC[C@H](C)[C@@H]1NC(=O)[C@H](CCCCN)NC(=O)[C@@H](NC(=O)[C@H](CCCCN)NC(=O)[C@@H](NC(=O)[C@H](CC(N)=O)NC(=O)[C@@H](NC(=O)[C@@H](NC(=O)[C@@H](NC(=O)CN)C(C)C)[C@@H](C)CC)[C@@H](C)CC)C(C)C)CSSC[C@@H]2NC(=O)[C@H](CCCCN)NC(=O)CNC(=O)[C@H](Cc3ccccc3)NC(=O)[C@H](CCCNC(=N)N)NC(=O)[C@H](CCSC)NC(=O)CNC(=O)[C@H](C)NC(=O)[C@H](CCCCN)NC(=O)[C@H](CCCCN)NC(=O)[C@@H]3CSSC[C@@H](C(=O)N[C@H](C(=O)N4CCC[C@H]4C(=O)N[C@@H](CCCCN)C(=O)O)[C@@H](C)O)NC(=O)[C@H](Cc4c[nH]cn4)NC(=O)[C@H](CSSC[C@H](NC(=O)[C@H](CCC(N)=O)NC(=O)[C@H](CCCNC(=N)N)NC(=O)[C@H](CO)NC1=O)C(=O)N[C@@H](CC(C)C)C(=O)N[C@@H](CCC(=O)O)C(=O)N[C@@H](CCC(=O)O)C(=O)N3)NC(=O)[C@H](CCCCN)NC(=O)CNC(=O)[C@H](CC(N)=O)NC(=O)[C@H](CCSC)NC2=O [P17E] (H-GVIINVKCKISRQCLEECKKAGMRFGKCMNGKCHCTPK-OH; disulfide 8-28, 14-33, 18-35) | 0.947 nM | 0.52 nM |  |  |  |
| E16K, K20D, T36Y (GVIINVKCKISRQCLKPCKDAGMRFGKCMNGKCHCYPK; Definition of Artificial Sequence: Synthetic peptide) |  |  |  |  | IC50 ([1]; read-out: WB/IFNg (IC50)): 0.923 nM; IC50 ([2]; read-out: WB/IL-2 (IC50)): 0.639 nM |
| GVIINVKCKISRQCLEPCKKAGMRFGKCMAGKCHCTPK [Ala-30 (SEQ ID No: 1425)] |  |  | 0.637 nM | 0.971 nM |  |
| CC[C@H](C)[C@@H]1NC(=O)[C@H](CCCCN)NC(=O)[C@@H](NC(=O)[C@H](CCCCN)NC(=O)[C@@H](NC(=O)[C@H](CC(N)=O)NC(=O)[C@@H](NC(=O)[C@@H](NC(=O)[C@@H](NC(=O)CN)C(C)C)[C@@H](C)CC)[C@@H](C)CC)C(C)C)CSSC[C@@H]2NC(=O)[C@H](CCCCN)NC(=O)CNC(=O)[C@H](Cc3ccccc3)NC(=O)[C@H](CCCNC(=N)N)NC(=O)[C@H](CCSC)NC(=O)CNC(=O)[C@H](C)NC(=O)[C@H](CCCCN)NC(=O)[C@H](CCCCN)NC(=O)[C@@H]3CSSC[C@@H](C(=O)N[C@H](C(=O)N4CCC[C@H]4C(=O)N[C@@H](CCCCN)C(=O)O)[C@@H](C)O)NC(=O)[C@H](Cc4c[nH]cn4)NC(=O)[C@H](CSSC[C@H](NC(=O)[C@H](CCC(N)=O)NC(=O)[C@H](CCCNC(=N)N)NC(=O)[C@H](CO)NC1=O)C(=O)N[C@@H](CC(C)C)C(=O)N[C@@H](CCC(=O)O)C(=O)N[C@@H](CCCNC(=N)N)C(=O)N3)NC(=O)[C@H](CCCCN)NC(=O)CNC(=O)[C@H](CC(N)=O)NC(=O)[C@H](CCSC)NC2=O [P17R] (H-GVIINVKCKISRQCLERCKKAGMRFGKCMNGKCHCTPK-OH; disulfide 8-28, 14-33, 18-35) | 0.355 nM | 0.202 nM |  |  |  |
| CC[C@H](C)[C@@H]1NC(=O)[C@H](CCCCN)NC(=O)[C@@H](NC(=O)[C@H](CCCCN)NC(=O)[C@@H](NC(=O)[C@H](CC(N)=O)NC(=O)[C@@H](NC(=O)[C@@H](NC(=O)[C@@H](NC(=O)CN)C(C)C)[C@@H](C)CC)[C@@H](C)CC)C(C)C)CSSC[C@@H]2NC(=O)[C@H](CCCCN)NC(=O)CNC(=O)[C@H](Cc3ccccc3)NC(=O)[C@H](CCCNC(=N)N)NC(=O)[C@H](Cc3cccc4ccccc34)NC(=O)CNC(=O)[C@H](C)NC(=O)[C@H](CCCCN)NC(=O)[C@H](CCCCN)NC(=O)[C@@H]3CSSC[C@@H](C(=O)N[C@H](C(=O)N4CCC[C@H]4C(=O)N[C@@H](CCCCN)C(=O)O)[C@@H](C)O)NC(=O)[C@H](Cc4c[nH]cn4)NC(=O)[C@H](CSSC[C@H](NC(=O)[C@H](CCC(N)=O)NC(=O)[C@H](CCCNC(=N)N)NC(=O)[C@H](CO)NC1=O)C(=O)N[C@@H](CC(C)C)C(=O)N[C@@H](CCC(=O)O)C(=O)N1CCC[C@H]1C(=O)N3)NC(=O)[C@H](CCCCN)NC(=O)CNC(=O)[C@H](CC(N)=O)NC(=O)[C@H](CCSC)NC2=O [M23Nal] (H-GVIINVKCKISRQCLEPCKKAG[1Nal]RFGKCMNGKCHCTPK-OH; disulfide 8-28, 14-33, 18-35) | 1.11 nM | 0.581 nM |  |  |  |
| CC[C@H](C)[C@@H]1NC(=O)[C@H](CCCCN)NC(=O)[C@@H](NC(=O)[C@H](CCCCN)NC(=O)[C@@H](NC(=O)[C@H](CC(N)=O)NC(=O)[C@@H](NC(=O)[C@@H](NC(=O)[C@@H](NC(=O)CN)C(C)C)[C@@H](C)CC)[C@@H](C)CC)C(C)C)CSSC[C@@H]2NC(=O)[C@H](CCCCN)NC(=O)CNC(=O)[C@H](Cc3ccccc3)NC(=O)[C@H](CCCNC(=N)N)NC(=O)[C@H](CCSC)NC(=O)CNC(=O)[C@H](C)NC(=O)[C@H](Cc3cccc4ccccc34)NC(=O)[C@H](CCCCN)NC(=O)[C@@H]3CSSC[C@@H](C(=O)N[C@H](C(=O)N4CCC[C@H]4C(=O)N[C@@H](CCCCN)C(=O)O)[C@@H](C)O)NC(=O)[C@H](Cc4c[nH]cn4)NC(=O)[C@H](CSSC[C@H](NC(=O)[C@H](CCC(N)=O)NC(=O)[C@H](CCCNC(=N)N)NC(=O)[C@H](CO)NC1=O)C(=O)N[C@@H](CC(C)C)C(=O)N[C@@H](CCC(=O)O)C(=O)N1CCC[C@H]1C(=O)N3)NC(=O)[C@H](CCCCN)NC(=O)CNC(=O)[C@H](CC(N)=O)NC(=O)[C@H](CCSC)NC2=O [K20Nal] (H-GVIINVKCKISRQCLEPCK[1Nal]AGMRFGKCMNGKCHCTPK-OH; disulfide 8-28, 14-33, 18-35) | 0.125 nM | 0.074 nM |  |  |  |
| CC[C@H](C)[C@@H]1NC(=O)[C@H](CCCCN)NC(=O)[C@@H](NC(=O)[C@H](CCCCN)NC(=O)[C@@H](NC(=O)[C@H](CC(N)=O)NC(=O)[C@@H](NC(=O)[C@@H](NC(=O)[C@@H](NC(=O)CN)C(C)C)[C@@H](C)CC)[C@@H](C)CC)C(C)C)CSSC[C@@H]2NC(=O)[C@H](CCCCN)NC(=O)CNC(=O)[C@H](Cc3ccccc3)NC(=O)[C@H](CCCNC(=N)N)NC(=O)[C@H](CCSC)NC(=O)CNC(=O)[C@H](C)NC(=O)[C@H](CCCCN)NC(=O)[C@H](CCCCN)NC(=O)[C@@H]3CSSC[C@@H](C(=O)N[C@H](C(=O)N4CCC[C@H]4C(=O)N[C@@H](CCCCN)C(=O)O)[C@@H](C)O)NC(=O)[C@H](Cc4c[nH]cn4)NC(=O)[C@H](CSSC[C@H](NC(=O)[C@H](CCC(N)=O)NC(=O)[C@H](CCCNC(=N)N)NC(=O)[C@H](C)NC1=O)C(=O)N[C@@H](CC(C)C)C(=O)N[C@@H](CCC(=O)O)C(=O)N1CCC[C@H]1C(=O)N3)NC(=O)[C@H](CCCCN)NC(=O)CNC(=O)[C@H](CC(N)=O)NC(=O)[C@H](CCSC)NC2=O [S11A] (H-GVIINVKCKIARQCLEPCKKAGMRFGKCMNGKCHCTPK-OH; disulfide 8-28, 14-33, 18-35) | 0.11 nM | 0.09 nM |  |  |  |
| GVIINVACKISRQCLEPCKKAGMRFGKCMNGKCHCTPK [Ala-7 (SEQ ID No: 1406)] |  |  | 0.0591 nM | 0.0675 nM |  |
| GVIANVKCKISRQCLEPCKKAGMRFGKCMNGKCHCTPK [Ala-4 (SEQ ID No: 1403)] |  |  | 0.0873 nM | 0.111 nM |  |
